Assays:
Assay in all cases: isothermal titration calorimetry
Gal-3–Gal-7 = target: T1, Gal-3–Gal-7; assay type: binding, Homo sapiens; settings: 25 °C, pH 7.2, 20 mM phosphate, 10 mM NaCl, 10 mM beta-mercaptoethanol; one-set-of-sites, n fitted
T1 construct: gene LGALS3; one polypeptide; recombinant from E. coli
Source text: isothermal titration calorimetry on Gal-3–Gal-7

Gal-7–8S–Gal-3 = target: T2, Gal-7–8S–Gal-3; assay type: binding, Homo sapiens; settings: 25 °C, pH 7.2, 20 mM phosphate, 10 mM NaCl, 10 mM beta-mercaptoethanol; one-set-of-sites, n fitted; LacNAc 2 mM
T2 construct: gene LGALS7; one polypeptide; recombinant from E. coli
Source text: isothermal titration calorimetry on Gal-7–8S–Gal-3

Gal-3–8S–Gal-7 = target: T3, Gal-3–8S–Gal-7; assay type: binding, Homo sapiens; settings: 25 °C, pH 7.2, 20 mM phosphate, 10 mM NaCl, 10 mM beta-mercaptoethanol; one-set-of-sites, n fitted
T3 construct: gene LGALS3; one polypeptide; recombinant from E. coli
Source text: isothermal titration calorimetry on Gal-3–8S–Gal-7

Gal-1–8S–Gal-7 = target: T4, Gal-1–8S–Gal-7; assay type: binding, Homo sapiens; settings: 25 °C, pH 7.2, 20 mM phosphate, 10 mM NaCl, 10 mM beta-mercaptoethanol; one-set-of-sites, n fitted
T4 construct: gene LGALS1; Gal-1 CRD N-terminal, 33-amino-acid linker of Gal-8S, Gal-7 CRD C-terminal; one polypeptide; recombinant from E. coli
Source text: isothermal titration calorimetry on Gal-1–8S–Gal-7

Gal-7–Gal-1 = target: T5, Gal-7–Gal-1; assay type: binding, Homo sapiens; settings: 25 °C, pH 7.2, 20 mM phosphate, 10 mM NaCl, 10 mM beta-mercaptoethanol; one-set-of-sites, n fitted
T5 construct: gene LGALS7; direct fusion, Gal-7 CRD N-terminal, Gal-1 CRD C-terminal; one polypeptide; recombinant from E. coli
Source text: isothermal titration calorimetry on Gal-7–Gal-1

Gal-1–Gal-7 = target: T6, Gal-1–Gal-7; assay type: binding, Homo sapiens; settings: 25 °C, pH 7.2, 20 mM phosphate, 10 mM NaCl, 10 mM beta-mercaptoethanol; one-set-of-sites, n fitted
T6 construct: gene LGALS1; direct fusion, Gal-1 CRD N-terminal, Gal-7 CRD C-terminal; one polypeptide; recombinant from E. coli
Source text: isothermal titration calorimetry on Gal-1–Gal-7

Gal-7–8S–Gal-7 = target: T7, Gal-7–8S–Gal-7 (Homo sapiens, UniProt P47929); assay type: binding; settings: 25 °C, pH 7.2, 20 mM phosphate, 10 mM NaCl, 10 mM beta-mercaptoethanol; one-set-of-sites, n fitted
T7 construct: gene LGALS7; two Gal-7 CRDs in one polypeptide joined by the 33-amino-acid linker of Gal-8S (covalent homodimer); recombinant from E. coli
Source text: isothermal titration calorimetry on Gal-7–8S–Gal-7

Gal-7 = target: T8, Gal-7 (Homo sapiens, UniProt P47929); assay type: binding; settings: 25 °C
T8 construct: gene LGALS7; wild type, recombinant from E. coli, lactosylated Sepharose; non-covalent homodimer
Source text: isothermal titration calorimetry on Gal-7 | TF) antigen CD176) interacts with Gal-7’s CRD (Table S15, Fig. S11) | The data obtained with Lac (Table S14) corroborated the conclusions on activity

Gal-7–Gal-7 = target: T9, Gal-7–Gal-7 (Homo sapiens, UniProt P47929); assay type: binding; settings: 25 °C, pH 7.2, 20 mM phosphate, 10 mM NaCl, 10 mM beta-mercaptoethanol; one-set-of-sites, n fitted; LacNAc 10 mM
T9 construct: gene LGALS7; two Gal-7 CRDs directly fused in one polypeptide (covalent homodimer, no added residues); recombinant from E. coli
Source text: isothermal titration calorimetry on Gal-7–Gal-7

Gal-7–Gal-3 = target: T10, Gal-7–Gal-3; assay type: binding, Homo sapiens; settings: 25 °C, pH 7.2, 20 mM phosphate, 10 mM NaCl, 10 mM beta-mercaptoethanol; one-set-of-sites, n fitted
T10 construct: gene LGALS7; one polypeptide; recombinant from E. coli
Source text: isothermal titration calorimetry on Gal-7–Gal-3

T8 sequence (P47929 whole entry): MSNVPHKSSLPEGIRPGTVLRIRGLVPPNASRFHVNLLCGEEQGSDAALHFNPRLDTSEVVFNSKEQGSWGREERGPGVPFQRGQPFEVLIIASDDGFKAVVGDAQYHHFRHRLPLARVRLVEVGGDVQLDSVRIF
T7 sequence (P47929 whole entry): as above
T9 sequence (P47929 whole entry, the tested form may be a part): as the sequence (P47929 whole entry) above

Kd (Gal-3–Gal-7) | Kd (Gal-7–8S–Gal-3) | Kd (Gal-3–8S–Gal-7) | Kd (Gal-1–8S–Gal-7) | Kd (Gal-7–Gal-1) | Kd (Gal-1–Gal-7) | Kd (Gal-7–8S–Gal-7) | Kd (Gal-7; pH 7.2, 20 mM phosphate, 10 mM NaCl, 10 mM beta-mercaptoethanol, one-set-of-sites, n fitted) | Kd (Gal-7–Gal-7) | Kd (Gal-7–Gal-3) | Kd (Gal-7; pH 7.2) | Structure (SMILES)
96.2 ± 2.1 µM | 32.5 ± 0.81 µM | 68.6 ± 6.56 µM | 162 ± 3.79 µM | 103 ± 6.11 µM | 175 ± 2.11 µM | 287 ± 9.55 µM | 316 ± 5.88 µM | 261 ± 6.21 µM | 86.5 ± 5.75 µM | – | CC(=O)N[C@H]1C(O)O[C@H](CO)[C@@H](O[C@@H]2O[C@H](CO)[C@H](O)[C@H](O)[C@H]2O)[C@@H]1O (stereo partly drawn) [LacNAc]
– | – | – | – | – | – | – | – | – | – | 323 ± 5.7 µM | OC[C@H]1O[C@@H](O[C@H]2[C@H](O)[C@@H](O)C(O)O[C@@H]2CO)[C@H](O)[C@@H](O)[C@H]1O (stereo partly drawn) [Lac]
– | – | – | – | – | – | – | – | – | – | 1250 ± 126 µM | CC(=O)N[C@H]1C(O)O[C@H](CO)[C@H](O)[C@@H]1O[C@@H]1O[C@H](CO)[C@H](O)[C@H](O)[C@H]1O (stereo partly drawn) [core 1 mucin-type O-glycan disaccharide]

Source: PMC8460509, “Imitating evolution’s tinkering by protein engineering reveals extension of human galectin-7 activity” (Histochemistry and cell biology, 2021)
